Test results: patent US12240862B2, “Inhibitors of peptidylarginine deiminases” (Gilead Sciences, Inc., priority 2020, dated 2025)
pIC50: −log10 of the molar value.

Target: T1, human PAD4 (Homo sapiens, UniProt Q9UM07)
T1 construct: human PAD4 (NM_012387), A2P663, was PCR amplified; His-SUMO (N, cleaved yes); made in house; host or cells: E. coli BL21(DE3)
Test: In vitro PAD4 BAEE biochemical assay
Conditions: human PAD4, BAEE substrate; 5 nM PAD4, 2 mM calcium chloride, 3 mM BAEE; geometric mean of multiple experiments
Method in brief: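 Ammonia release from BAEE deimination monitored by o-phthalaldehyde amine coupling (1 h, 25 °C) after EDTA stop. Final conditions: 5 nM tag-free recombinant human PAD4 (E. coli), 2 mM CaCl2, 3 mM BAEE, pH 7.6 MOPS with DTT; 30 min compound preincubation, then 2 h reaction at 25 °C.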

T1 sequence (Q9UM07 2-663): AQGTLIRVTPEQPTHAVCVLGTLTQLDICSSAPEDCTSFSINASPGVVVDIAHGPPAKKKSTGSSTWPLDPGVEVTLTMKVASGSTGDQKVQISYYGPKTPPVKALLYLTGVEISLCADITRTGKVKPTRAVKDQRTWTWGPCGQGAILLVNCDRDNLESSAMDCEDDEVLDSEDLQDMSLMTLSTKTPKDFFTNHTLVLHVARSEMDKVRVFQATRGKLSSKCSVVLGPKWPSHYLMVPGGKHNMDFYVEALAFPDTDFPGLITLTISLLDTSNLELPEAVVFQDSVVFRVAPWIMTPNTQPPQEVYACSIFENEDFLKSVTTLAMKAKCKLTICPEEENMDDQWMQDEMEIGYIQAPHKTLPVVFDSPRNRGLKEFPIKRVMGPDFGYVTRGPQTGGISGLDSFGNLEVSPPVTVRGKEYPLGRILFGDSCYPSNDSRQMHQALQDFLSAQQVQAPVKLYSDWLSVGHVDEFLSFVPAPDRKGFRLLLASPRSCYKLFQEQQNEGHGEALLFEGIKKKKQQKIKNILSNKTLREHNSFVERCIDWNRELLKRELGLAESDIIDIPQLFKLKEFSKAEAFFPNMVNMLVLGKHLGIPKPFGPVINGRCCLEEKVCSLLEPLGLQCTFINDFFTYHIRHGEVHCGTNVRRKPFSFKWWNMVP

| pIC50 | Compound |
| --- | --- |
| 7.55 | COc1cc(C(=O)N2[C@H]3CC[C@@H]2[C@H](N)C3)cc2nc(-c3cc4ccc(N5CCCCCS5(=O)=O)nc4n3CC3CC3)c(C)n12 [Example 459, [(1~{R},2~{R},4~{S})-2-amino-7-azabicyclo [2.2.1]heptan-7-yl]-[2-[1-(cyclopropylmethyl)-6-(1,1-dioxothiazepan-2-yl)pyrrolo[2,3-b]pyridin-2-yl]-5-methoxy-3-methylimidazo[1,2-a]pyridin-7-yl]methanone] |
| 6.32 | COc1cc(C(=O)N2[C@H]3CC[C@@H]2[C@H](N)[C@H](OC)C3)cc2nc(-c3cc4ccc([C@@H](C)NC(=O)C56CC(F)(C5)C6)nc4n3CC3CC3)c(C)n12 [Example 22, ~{N}-[(1~{R})-1-[2-[7-[(1~{R},2~{S},3~{R}, 5~{S})-2-amino-3-methoxy-8-azabicyclo [3.2.1]octane-8-carbonyl]-5-methoxy-3-methylimidazo [1,2-a]pyridin-2-yl]-1-(cyclopropylmethyl)pyrrolo[2,3-b]pyridin-6-yl]ethyl]-3-fluorobicyclo[1.1.1] pentane-1-carboxamide] |
| 5.18 | COc1cc(C(=O)N2[C@H]3CC[C@@H]2[C@H](N)C3)cc2nc(-c3cc4ccc(N[C@H](C)C(F)(F)F)nc4n3CC3CC3)c(C)n12 [Example 449] |
| 7.06 | COc1cc(C(=O)N2[C@H]3CC[C@@H]2[C@H](N)C3)cc2nc(-c3cc4ccc([C@@H](C)NC(=O)CC(C)(C)OC)nc4n3CC3CC3)c(C)n12 [Example 39, ~{N}-[(1~{R})-1-[2-[7-[(1~{R},2~{R},4~{S})-2-amino-7-azabicyclo[2.2.1]heptane-7-carbonyl]-5-methoxy-3-methylimidazo[1,2-a]pyridin-2-yl]-1-(cyclopropylmethyl)pyrrolo[2,3-b]pyridin-6-yl]ethyl]-3-methoxy-3-methylbutanamide] |
| 6.89 | CCN(c1ccc2cc(-c3nc4cc(C(=O)N5CCC[C@@H](N)[C@H]5C)cc(OC)n4c3C)n(CC3CC3)c2n1)S(C)(=O)=O [Example 483, ~{N}-[2-[7-[(2~{R}, 3~{R})-3-amino-2-methylpiperidine-1-carbonyl]-5-methoxy-3-methylimidazo[1,2-a]pyridin-2-yl]-1-(cyclopropylmethyl)pyrrolo [2,3-b]pyridin-6-yl]-~{N}-ethylmethanesulfonamide] |
| 6.61 | COc1cc(C(=O)N2CC[C@H]3C[C@@]3(N)C2)cc2nc(-c3cc4ccc(N(C(F)F)S(C)(=O)=O)nc4n3CC3CC3)c(C)n12 [Example 362, ~{N}-[2-[7-[(1~{S}, 6~{S})-1-amino-3-azabicyclo[4.1.0]heptane-3-carbonyl]-5-methoxy-3-methylimidazo [1,2-a]pyridin-2-yl]-1-(cyclopropylmethyl)pyrrolo [2,3-b]pyridin-6-yl]-~{N}-(difluoromethyl) methanesulfonamide] |
| 7.45 | COc1cc(C(=O)N2[C@H]3CC[C@@H]2[C@H](N)C3)cc2nc(-c3cc4ccc([C@@H](C)NC(=O)N5CC(C(=O)O)C5)nc4n3CC3CC3)c(C)n12 [Example 237] |
| 6.39 | COc1cc(C(=O)N2C[C@H]3CC[C@@H]2[C@H](N)C3)cc2nc(-c3cc4ccc(N(C(F)F)S(C)(=O)=O)nc4n3CC3CC3)c(C)n12 [Example 376, ~{N}-[2-[7-[(1~{R},4~{S}, 6~{R})-6-amino-2-azabicyclo[2.2.2]octane-2-carbonyl]-5-methoxy-3-methylimidazo[1,2-a]pyridin-2-yl]-1-(cyclopropylmethyl)pyrrolo [2,3-b]pyridin-6-yl]-~{N}-(difluoromethyl) methanesulfonamide] |
| 5.35 | CCc1ccc2cc(-c3nc4cc(C(=O)N5C[C@]6(N)CC[C@H]5C6)cc(OC)n4c3C)n(CC3CC3)c2n1 [Example 587, [(1~{S},4~{S})-4-amino-2-azabicyclo[2.2.1]heptan-2-yl]-[2-[1-(cyclopropylmethyl)-6-ethylpyrrolo[2,3-b]pyridin-2-yl]-5-methoxy-3-methylimidazo[1,2-a]pyridin-7-yl]methanone] |
| 7.50 | COc1cc(C(=O)N2[C@H]3CC[C@@H]2[C@H](N)C3)cc2nc(-c3cc4ccc([C@@H](C)NC(=O)NCc5ncccn5)nc4n3CC3CC3)c(C)n12 [Example 224, 1-[(1~{R})-1-[2-[7-[(1~{R},2~{R},4~{S})-2-amino-7-azabicyclo[2.2.1]heptane-7-carbonyl]-5-methoxy-3-methylimidazo [1,2-a]pyridin-2-yl]-1-(cyclopropylmethyl)pyrrolo [2,3-b]pyridin-6-yl]ethyl]-3-(pyrimidin-2-ylmethyl)urea] |
| 7.09 | COc1cc(C(=O)N2[C@H]3CC[C@@H]2[C@H](N)C3)cc2nc(-c3cc4ccc([C@H]5CCNC(=O)C5)nc4n3CC3CC3)c(C)n12 [Example 554, (4~{S})-4-[2-[7-[(1~{R}, 2~{R},4~{S})-2-amino-7-azabicyclo[2.2.1]heptane-7-carbonyl]-5-methoxy-3-methylimidazo [1,2-a]pyridin-2-yl]-1-(cyclopropylmethyl)pyrrolo [2,3-b]pyridin-6-yl]piperidin-2-one] |
| 7.28 | COc1cc(C(=O)N2[C@H]3CC[C@@H]2[C@H](N)C3)cc2nc(-c3cc4ccc([C@@H](C)NC(=O)c5ccn(C)n5)nc4n3CC3CC3)c(C)n12 [Example 108, ~{N}-[(1~{R})-1-[2-[7-[(1~{R},2~{R},4~{S})-2-amino-7-azabicyclo[2.2.1]heptane-7-carbonyl]-5-methoxy-3-methylimidazo [1,2-a]pyridin-2-yl]-1-(cyclopropylmethyl)pyrrolo [2,3-b]pyridin-6-yl]ethyl]-1-methylpyrazole-3-carboxamide] |
| 5.01 | COc1cc(C(=O)N2CCC[C@@H](N)C2)cc2nc(-c3cc4cc(F)c(Cl)cc4n3CC3CC3)c(C)n12 [Example 590, [(3~{R})-3-aminopiperidin-1-yl]-[2-[6-chloro-1-(cyclopropylmethyl)-5-fluoroindol-2-yl]-5-methoxy-3-methylimidazo[1,2-a]pyridin-7-yl]methanone] |
| 6.52 | CCCO[C@@H]1CCN(C(=O)c2cc(OC)n3c(C)c(-c4cc5ccc([C@@H](C)NC(=O)c6ccccc6)nc5n4CC4CC4)nc3c2)C[C@@H]1N [Example 111, ~{N}-[(1~{R})-1-[2-[7-[(3~{S},4~{R})-3-amino-4-propoxypiperidine-1-carbonyl]-5-methoxy-3-methylimidazo[1,2-a]pyridin-2-yl]-1-(cyclopropylmethyl)pyrrolo [2,3-b]pyridin-6-yl]ethyl] benzamide] |
| 4.57 | COc1cc(C(=O)N2C[C@H](N)C[C@@H]2CF)cc2nc(-c3cc4ccc(N(C(F)F)S(C)(=O)=O)nc4n3CC3CC3)c(C)n12 [Example 353, N-[2-[7-[(2R,4R)-4-amino-2-(fluoromethyl)pyrrolidine-1-carbonyl]-5-methoxy-3-methyl-imidazo[1,2-a]pyridin-2-yl]-1-(cyclopropylmethyl)pyrrolo [2,3-b]pyridin-6-yl]-N-(difluoromethyl) methanesulfonamide] |
| 6.56 | COc1cc(C(=O)N2CC[C@@H]3CCNC[C@@H]32)cc2nc(-c3cc4ccc(N(C(F)F)S(C)(=O)=O)nc4n3CC3CC3)c(C)n12 [Example 321, ~{N}-[2-[7-[(3~{a}~{S},7~{a}~{R})-2,3,3~{a},4,5,6,7,7~{a}-octahydropyrrolo[2,3-c]pyridine-1-carbonyl]-5-methoxy-3-methylimidazo[1,2-a]pyridin-2-yl]-1-(cyclopropylmethyl)pyrrolo [2,3-b]pyridin-6-yl]-~{N}-(difluoromethyl) methanesulfonamide] |
| 7.37 | COc1cc(C(=O)N2[C@H]3CC[C@@H]2[C@H](N)C3)cc2nc(-c3cc4ccc([C@@H](C)NC(=O)[C@@H](C)O)nc4n3CC3CC3)c(C)n12 [Example 91, (2~{R})-~{N}-[(1~{R})-1-[2-[7-[(1~{R},2~{R},4~{S})-2-amino-7-azabicyclo[2.2.1]heptane-7-carbonyl]-5-methoxy-3-methylimidazo [1,2-a]pyridin-2-yl]-1-(cyclopropylmethyl)pyrrolo [2,3-b]pyridin-6-yl]ethyl]-2-hydroxypropanamide] |
| 6.68 | COc1cc(C(=O)N2[C@H]3CC[C@@H]2[C@H](N)C3)cc2nc(-c3cc4ccc(N5C[C@@H](C)OCS5(=O)=O)nc4n3CC3CC3)c(C)n12 [Example 440, [(1~{R},2~{R},4~{S})-2-amino-7-azabicyclo [2.2.1]heptan-7-yl]-[2-[1-(cyclopropylmethyl)-6-[(6~{R})-6-methyl-3,3-dioxo-1,3,4-oxathiazinan-4-yl]pyrrolo [2,3-b]pyridin-2-yl]-5-methoxy-3-methylimidazo [1,2-a]pyridin-7-yl] methanone] |
| 4.57 | COc1cc(C(=O)NC[C@H]2CCCCN2)cc2nc(-c3cc4ccc(N(C(F)F)S(C)(=O)=O)nc4n3CC3CC3)c(C)n12 [Example 295, 2-[1-(cyclopropylmethyl)-6-[difluoromethyl (methylsulfonyl)amino]pyrrolo[2,3-b]pyridin-2-yl]-5-methoxy-3-methyl-~{N}-[[(2~{R})-piperidin-2-yl]methyl] imidazo[1,2-a]pyridine-7-carboxamide] |
| 6.44 | COc1cc(C(=O)N2[C@H]3CC[C@@H]2[C@H](N)C3)cc2nc(-c3cc4ccc(C5CCCCN5C(=O)N5CCCC5)nc4n3CC3CC3)c(C)n12 (stereo partly drawn) [Example 544, [(1~{R},2~{R},4~{S})-2-amino-7-azabicyclo [2.2.1]heptan-7-yl]-[2-[1-(cyclopropylmethyl)-6-[1-(pyrrolidine-1-carbonyl)piperidin-2-yl]pyrrolo [2,3-b]pyridin-2-yl]-5-methoxy-3-methylimidazo [1,2-a]pyridin-7-yl] methanone] |

| Compound | pIC50 |
| --- | --- |
| COc1cc(C(=O)N2[C@H]3CC[C@@H]2[C@H](N)C3)cc2nc(-c3cc4ccc([C@@H](C)N5CCOC5=O)nc4n3CC3CC3)c(C)n12 [Example 275, 3-((R)-1-(2-(7-((1R,2R,4S)-2-amino-7-azabicyclo[2.2.1]heptane-7-carbonyl)-5-methoxy-3-methylimidazo[1,2-a]pyridin-2-yl)-1-(cyclopropylmethyl)-1H-pyrrolo[2,3-b]pyridin-6-yl)ethyl)oxazolidin-2-one] | 7.85 |
